From PubChem BioAssay (NCI)
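Exposure lasted 48 hours, with cells grown in 96-well plates and compounds tested at five concentrations. TGI is the concentration that stops growth completely.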

Columns and labels:
Assay in all cases: DTP human tumour cell line panel, 48 h
SK-MEL-28 melanoma = test system: SK-MEL-28 melanoma
MDA-MB-435 = test system: MDA-MB-435
A549 NSCLC = test system: A549 NSCLC
HOP-92 NSCLC = test system: HOP-92 NSCLC
OVCAR-8 ovarian = test system: OVCAR-8 ovarian
RXF 393 renal = test system: RXF 393 renal
OVCAR-5 ovarian = test system: OVCAR-5 ovarian
SNB-75 CNS = test system: SNB-75 CNS
ACHN renal = test system: ACHN renal
SR leukemia = test system: SR leukemia
NCI/ADR-RES ovarian = test system: NCI/ADR-RES ovarian
SF-268 CNS = test system: SF-268 CNS
CCRF-CEM leukemia = test system: CCRF-CEM leukemia
HCT-15 colon = test system: HCT-15 colon
MDA-MB-231 breast = test system: MDA-MB-231 breast
NCI-H460 lung = test system: NCI-H460 lung
U251 CNS = test system: U251 CNS
HCC-2998 colon = test system: HCC-2998 colon
SW-620 colon = test system: SW-620 colon
SK-MEL-5 melanoma = test system: SK-MEL-5 melanoma
MCF7 breast = test system: MCF7 breast
RPMI-8226 leukemia = test system: RPMI-8226 leukemia
OVCAR-4 ovarian = test system: OVCAR-4 ovarian
CAKI-1 renal = test system: CAKI-1 renal
T-47D breast = test system: T-47D breast
SF-539 CNS = test system: SF-539 CNS
EKVX NSCLC = test system: EKVX NSCLC
IGROV1 ovarian = test system: IGROV1 ovarian
DU-145 prostate = test system: DU-145 prostate
HL-60(TB) leukemia = test system: HL-60(TB) leukemia
M14 melanoma = test system: M14 melanoma
LOX IMVI melanoma = test system: LOX IMVI melanoma
MDA-N = test system: MDA-N
TK-10 renal = test system: TK-10 renal
MOLT-4 leukemia = test system: MOLT-4 leukemia
SF-295 CNS = test system: SF-295 CNS
SNB-19 CNS = test system: SNB-19 CNS
HT29 colon = test system: HT29 colon
PC-3 prostate = test system: PC-3 prostate
HS 578T breast = test system: HS 578T breast
K-562 leukemia = test system: K-562 leukemia
UACC-62 melanoma = test system: UACC-62 melanoma
SK-OV-3 ovarian = test system: SK-OV-3 ovarian
COLO 205 colon = test system: COLO 205 colon
NCI-H226 lung = test system: NCI-H226 lung
NCI-H23 lung = test system: NCI-H23 lung
HOP-62 NSCLC = test system: HOP-62 NSCLC
KM12 colon = test system: KM12 colon
A498 renal = test system: A498 renal
SK-MEL-2 melanoma = test system: SK-MEL-2 melanoma
OVCAR-3 ovarian = test system: OVCAR-3 ovarian
UO-31 renal = test system: UO-31 renal
UACC-257 melanoma = test system: UACC-257 melanoma
NCI-H522 lung = test system: NCI-H522 lung
HCT-116 colon = test system: HCT-116 colon
786-0 renal = test system: 786-0 renal
MALME-3M melanoma = test system: MALME-3M melanoma
BT-549 breast = test system: BT-549 breast
SN12C renal = test system: SN12C renal

For `Cc1ccc(C(=O)N/N=C(\N=Nc2cccc(C)c2)c2ccc(N(CCC#N)CCC#N)cc2C)cc1`, the TGI (SK-MEL-28 melanoma) was 61.4 µM, the TGI (MDA-MB-435) was > 100 µM and the TGI (A549 NSCLC) was > 100 µM. The TGI (HOP-92 NSCLC) was > 100 µM, the TGI (OVCAR-8 ovarian) was > 100 µM and the TGI (RXF 393 renal) was > 100 µM. For the same compound, the TGI (OVCAR-5 ovarian) was > 100 µM, the TGI (SNB-75 CNS) was > 100 µM and the TGI (ACHN renal) was > 100 µM. For the same compound, the TGI (SR leukemia) was > 100 µM, the TGI (NCI/ADR-RES ovarian) was > 100 µM and the TGI (SF-268 CNS) was > 100 µM. For the same compound, the TGI (CCRF-CEM leukemia) was > 100 µM, the TGI (HCT-15 colon) was > 100 µM and the TGI (MDA-MB-231 breast) was > 100 µM. For the same compound, the TGI (NCI-H460 lung) was > 100 µM, the TGI (U251 CNS) was > 100 µM and the TGI (HCC-2998 colon) was > 100 µM. For the same compound, the TGI (SW-620 colon) was > 100 µM, the TGI (SK-MEL-5 melanoma) was > 100 µM and the TGI (MCF7 breast) was > 100 µM. For the same compound, the TGI (RPMI-8226 leukemia) was > 100 µM, the TGI (OVCAR-4 ovarian) was > 100 µM and the TGI (CAKI-1 renal) was > 100 µM. The TGI (T-47D breast) was > 100 µM, the TGI (SF-539 CNS) was > 100 µM and the TGI (EKVX NSCLC) was > 100 µM. The TGI (IGROV1 ovarian) was > 100 µM, the TGI (DU-145 prostate) was > 100 µM and the TGI (HL-60(TB) leukemia) was > 100 µM. The TGI (M14 melanoma) was > 100 µM, the TGI (LOX IMVI melanoma) was > 100 µM and the TGI (MDA-N) was > 100 µM. The TGI (TK-10 renal) was > 100 µM, the TGI (MOLT-4 leukemia) was > 100 µM and the TGI (SF-295 CNS) was > 100 µM. The TGI (SNB-19 CNS) was > 100 µM, the TGI (HT29 colon) was > 100 µM and the TGI (PC-3 prostate) was > 100 µM. For the same compound, the TGI (HS 578T breast) was > 100 µM, the TGI (K-562 leukemia) was > 100 µM and the TGI (UACC-62 melanoma) was > 100 µM. The TGI (SK-OV-3 ovarian) was > 100 µM, the TGI (COLO 205 colon) was > 100 µM and the TGI (NCI-H226 lung) was > 100 µM. The TGI (NCI-H23 lung) was > 100 µM, the TGI (HOP-62 NSCLC) was > 100 µM and the TGI (KM12 colon) was > 100 µM. For the same compound, the TGI (A498 renal) was > 100 µM, the TGI (SK-MEL-2 melanoma) was > 100 µM and the TGI (OVCAR-3 ovarian) was > 100 µM. For the same compound, the TGI (UO-31 renal) was > 100 µM and the TGI (UACC-257 melanoma) was > 100 µM.
In the case of `O=C1c2ccccc2CC12CCC1(CC2)OCCO1`, the TGI (SK-MEL-28 melanoma) is reported as > 100 µM, the TGI (NCI-H522 lung) is reported as > 100 µM and the TGI (A549 NSCLC) is reported as > 100 µM. For the same compound, the TGI (HCT-116 colon) was > 100 µM, the TGI (OVCAR-8 ovarian) was > 100 µM and the TGI (RXF 393 renal) was > 100 µM. The TGI (OVCAR-5 ovarian) was > 100 µM, the TGI (SNB-75 CNS) was > 100 µM and the TGI (ACHN renal) was > 100 µM. The TGI (SR leukemia) was > 100 µM, the TGI (NCI/ADR-RES ovarian) was > 100 µM and the TGI (SF-268 CNS) was > 100 µM. For the same compound, the TGI (CCRF-CEM leukemia) was > 100 µM, the TGI (HCT-15 colon) was > 100 µM and the TGI (MDA-MB-231 breast) was > 100 µM. The TGI (NCI-H460 lung) was > 100 µM, the TGI (U251 CNS) was > 100 µM and the TGI (HCC-2998 colon) was > 100 µM. For the same compound, the TGI (SW-620 colon) was > 100 µM, the TGI (MCF7 breast) was > 100 µM and the TGI (RPMI-8226 leukemia) was > 100 µM. The TGI (786-0 renal) was > 100 µM, the TGI (OVCAR-4 ovarian) was > 100 µM and the TGI (CAKI-1 renal) was > 100 µM. For the same compound, the TGI (T-47D breast) was > 100 µM, the TGI (SF-539 CNS) was > 100 µM and the TGI (EKVX NSCLC) was > 100 µM. For the same compound, the TGI (IGROV1 ovarian) was > 100 µM, the TGI (DU-145 prostate) was > 100 µM and the TGI (HL-60(TB) leukemia) was > 100 µM. The TGI (M14 melanoma) was > 100 µM, the TGI (LOX IMVI melanoma) was > 100 µM and the TGI (MDA-N) was > 100 µM. For the same compound, the TGI (TK-10 renal) was > 100 µM, the TGI (MOLT-4 leukemia) was > 100 µM and the TGI (SF-295 CNS) was > 100 µM. For the same compound, the TGI (SNB-19 CNS) was > 100 µM, the TGI (MALME-3M melanoma) was > 100 µM and the TGI (HT29 colon) was > 100 µM. The TGI (PC-3 prostate) was > 100 µM, the TGI (HS 578T breast) was > 100 µM and the TGI (K-562 leukemia) was > 100 µM. For the same compound, the TGI (UACC-62 melanoma) was > 100 µM, the TGI (BT-549 breast) was > 100 µM and the TGI (SK-OV-3 ovarian) was > 100 µM. The TGI (COLO 205 colon) was > 100 µM, the TGI (NCI-H226 lung) was > 100 µM and the TGI (NCI-H23 lung) was > 100 µM. For the same compound, the TGI (HOP-62 NSCLC) was > 100 µM, the TGI (KM12 colon) was > 100 µM and the TGI (SK-MEL-2 melanoma) was > 100 µM. The TGI (SN12C renal) was > 100 µM, the TGI (UO-31 renal) was > 100 µM and the TGI (UACC-257 melanoma) was > 100 µM.
`COc1ccccc1CNCCCCCNCCCCCCCCCCNCCCCCNCc1ccccc1OC` was tested, and the TGI (SK-MEL-28 melanoma) was > 100 µM, the TGI (NCI-H522 lung) was 42.2 µM and the TGI (MDA-MB-435) was > 100 µM. For the same compound, the TGI (A549 NSCLC) was 58.8 µM, the TGI (HOP-92 NSCLC) was > 100 µM and the TGI (HCT-116 colon) was 24.1 µM. For the same compound, the TGI (OVCAR-8 ovarian) was 77.7 µM, the TGI (RXF 393 renal) was 96.3 µM and the TGI (SNB-75 CNS) was 70.3 µM. The TGI (ACHN renal) was > 100 µM, the TGI (SR leukemia) was 32.2 µM and the TGI (SF-268 CNS) was > 100 µM. The TGI (CCRF-CEM leukemia) was 32.4 µM, the TGI (HCT-15 colon) was > 100 µM and the TGI (MDA-MB-231 breast) was 31.6 µM. The TGI (NCI-H460 lung) was 26.8 µM, the TGI (U251 CNS) was 32.9 µM and the TGI (HCC-2998 colon) was 39.2 µM. For the same compound, the TGI (SW-620 colon) was > 100 µM, the TGI (SK-MEL-5 melanoma) was > 100 µM and the TGI (MCF7 breast) was 32.7 µM. The TGI (RPMI-8226 leukemia) was > 100 µM, the TGI (786-0 renal) was 42.1 µM and the TGI (OVCAR-4 ovarian) was > 100 µM. The TGI (T-47D breast) was > 100 µM, the TGI (SF-539 CNS) was 21.2 µM and the TGI (IGROV1 ovarian) was 45 µM. The TGI (DU-145 prostate) was 33.5 µM, the TGI (HL-60(TB) leukemia) was 43.7 µM and the TGI (M14 melanoma) was > 100 µM. The TGI (LOX IMVI melanoma) was 30.3 µM, the TGI (MDA-N) was 34.5 µM and the TGI (TK-10 renal) was > 100 µM. The TGI (MOLT-4 leukemia) was 26.5 µM, the TGI (SF-295 CNS) was > 100 µM and the TGI (SNB-19 CNS) was > 100 µM. The TGI (MALME-3M melanoma) was 61.3 µM, the TGI (HT29 colon) was > 100 µM and the TGI (HS 578T breast) was 5.78 µM. For the same compound, the TGI (K-562 leukemia) was 31.7 µM, the TGI (UACC-62 melanoma) was > 100 µM and the TGI (BT-549 breast) was 45.5 µM. The TGI (COLO 205 colon) was > 100 µM, the TGI (NCI-H226 lung) was 34.3 µM and the TGI (NCI-H23 lung) was > 100 µM. For the same compound, the TGI (HOP-62 NSCLC) was 31.8 µM, the TGI (KM12 colon) was 58.4 µM and the TGI (SK-MEL-2 melanoma) was 34.7 µM. For the same compound, the TGI (OVCAR-3 ovarian) was > 100 µM, the TGI (SN12C renal) was 79.6 µM and the TGI (UO-31 renal) was > 100 µM.
